Data: patent US6525089B1, “Pharmaceutical composition containing decursin” (Binex Co., Ltd., priority 1998, dated 2003)

Columns and labels:
SD rats = assay: BUN and creatinine in blood as markers of nephrotoxicity, cisplatin-treated rats; type: in vivo, rat
Protocol: The detailed test methods were summarized hereinafter. BUN (blood urea nitrogen) and creatinine as a marker of nephrotoxicity in the blood, sGPT as a marker of hepatotoxicity, occult blood in the urine, bilirubin, urobilinogen, ketone, protein, nitrite, glucose, pH and specific gravity were determined as follows. […] BUN value was measured using the BUN measurement kit (Youngdong Pharm. Co. Ltd., Korea) in the following procedure. 0.1 ml of urease was added to 20 ml of buffer solution to obtain enzymatic buffer solution. […] The two test tubes were incubated at 37° C. for 15 minutes. Then 2 ml of color-forming solution was added into each test tube and incubated again at 37° C. for 5 minutes. The absorbance was measured at 570 nm to determine the amount of BUN. (2) Measurement of Creatinine Creatinine value was measured using the creatinine measurement kit (Youngdong, Pharm. Co. Ltd., Korea) in the following procedure. 4 ml of tungsten solution was added in 0.5 ml of serum sample to be tested, and stirred vigorously and then left for 10 minutes. […]. Every 3 ml of the supernatant, reference solution of creatinine and distilled water (for blank test) was put to the separate test tubes, followed by the addition of picrate solution (1 ml each). Then 0.5 ml of 1.4N NaOH was added in each tube and stirred to measure the absorbance at 515 nm exactly after the correct lapse of 15 minutes. A total of 10 male SD rats (body weight: 200 g) were used for this experiment. […] The animals were sacrificed and again weighed four days after treatment. […] Blood samples were also taken and left to sit for 30 minutes to isolate the sera, which was used to determine BUN, creatinine and sGPT values as markers of […].

U-937 cells [1] = assay: Growth inhibition test (trypan blue exclusion); type: cell-based, human
Protocol: U-937 cells, optioned from Korea Cell Line Bank, was cultured in RPMI 1640 medium (Sigma Co., R-6504) supplemented with 10% fetal bovine serum (FBS). The medium was exchanged every 5 day by 70%. U-937 cells were inoculated into a cell culture dish at concentration of 2×10^5 cells/ml. Then decursin added into the dish at concentration of 10^−8˜10^−6M, then the cells were cultured for 4 days. Trypan blue exclusion test was performed to determine the number of live cells using a hemacytometer, and the percentage of cancer-cell growth inhibition was calculated. Then, the differentiation was induced by treating with 10^−2M diluted ethanol solution containing various amount of decursin in the medium.

U-937 cells [2] = assay: NBT reduction test; type: cell-based, human; settings: 1 × 10^−7M, incubated 4 days
Protocol: U-937 cells were plated on a cell culture dish at a concentration of 2×10^5 cells/ml in a medium containing 10^−7M decursin and incubated in a 5% CO2 incubator at 37° C.
In the nitrobluetetrazolium (NBT) reduction test, cell solution (about 1×10^6 cells/ml) was well stirred and pelleted by centrifugation at 2000 rpm for 5 minutes. The pellets were suspended in 0.5 ml of medium, followed by the addition of a mixing solution (0.5 ml) containing 10^−6M formyl-methionine leucine phenylalanine (fMLP) and NBT 1.0 mg/DPBSml (1:9). The mixture was incubated at 37° C. for 30 minutes. The reaction was stopped in ice bath and centrifuged at 2000 rpm for 5 minutes. The supernatant was removed and then 200 μl of DPBS was added. The solution was lightly swayed and checked under a microscope to observe a minimum number of 200 cells. The number of NBT (+) cells was calculated by percentage.
The differentiation was investigated by using the fact that the differentiated leukocyte cells may generate superoxide anion by stimulation. […] The cultured mixture, which was reacted with superoxide, was reduced to form a precipitate. Then NBT was added to the precipitate (Table 7).

U-937 cells [3] = assay: Esterase activity test: naphthol AS-D chloroacetate esterase; type: cell-based, human; settings: percentage of cells showing activity
Protocol: To determine naphthol AS-D chloroacetate esterase activity, the cultured solution of U-937 cells was pelleted by centrifugation at 2000 rpm for 5 minutes, followed by the addition of 100 μl PBS to prepare a cell-concentrated solution. A drop of the cell solution was put on a slide glass and dried for more than 1 hour. Then 40 ml of deionized water was preheated at 37° C. 1 ml of […] solution was mixed with 1 ml of Fast Red Violet LB base solution and left for 2 minutes. The mixture was added to 40 ml of preheated deionized water. After the addition of 5 ml of TRIZMAL TM 6.3) buffer solution (Sigma Co. T-3128) and 1 ml of naphthol AS-D chloroacetate solution, the resulting solution, which was turned to red color was poured on a petri dish. The cells on a slide glass were fixed with citrate-acetone-formaldehyde solution, (CAF solution) at room temperature. The cells were soaked in the previously prepared solution and incubated at 37° C. for 30 minutes at a dark place. The cells were completely washed with deionized water for more than 2 minutes and counterstained with hematoxylin solution for 2 minutes, washed with tap water and dried in the air. After completely dried, the cells were observed under a microscope to calculate the reddish cell numbers by percentage.
Thus it was considered that the cells were differentiated into macrophage.like cells by the action of decursin.

normal cells (LLC-PK1) = assay: Cytotoxicity test on normal cells; type: cell-based; settings: 3 days
Protocol: To determine the cytotoxicity of decursin on normal cells, they were sub-cultured in a medium-199 containing, 3% fetal bovine serum (FBS), penicillin (100 U/ml) and streptomycin (100 μg/ml) every 3 to 4 day. Then cells were treated with trypsin to prepare a cell suspension. 1 ml of the cell suspension was seeded on 24-well plate at a concentration of 2×10^5 in cells/ml an d attached to the medium for one day. After the supernatant was removed, 1 ml of decursin was added to the cell culture medium at appropriate concentrations and incubated for 3 days to count the cell numbers.

[4] = system: cell lines of uterine cancer, leukemia, hepatoma or large intestine cancer; settings: cited from earlier work
[5] = post-treated: decursin 17.4 mg/kg i.p. 1, 24, 48 h after cisplatin 5.8 mg/kg i.p.
[6] = pre-treated: decursin 17.4 mg/kg i.p. 1, 24, 48 h prior to cisplatin 5.8 mg/kg i.p.

SMILES: CC(C)=CC(=O)O[C@H]1Cc2cc3ccc(=O)oc3cc2OC1(C)C [decursin]
- BUN (SD rats; [5]): 55.2 ± 2.1 mg/dL
- Creatinine (SD rats; [5]): 2.08 ± 0.52 mg/dL
- reduction of nephrotoxicity (creatinine) compared with the control group receiving cisplatin (SD rats; post-treatment group): about 40%
- BUN (SD rats; [6]): 17.5 ± 2.8 mg/dL
- Creatinine (SD rats; [6]): 0.74 ± 0.29 mg/dL
- Growth inhibition rate (%) (U-937 cells [1]; 1 × 10^−7M, 4 days (96 hours)): 42.0 ± 6.4%
- inhibition at 1 µM (U-937 cells [1]; Homo sapiens, U-937, 96 h, 1 × 10^−6M, 4 days (96 hours), read-out: Growth inhibition rate (%)): 52 ± 2.8%
- inhibition at 0.1 µM (U-937 cells [1]; Homo sapiens, U-937, 96 h, 1 × 10^−7M, 4 days (96 hours), read-out: Growth inhibition rate (%)): ~33%
- inhibition at 0.01 µM (U-937 cells [1]; Homo sapiens, U-937, 96 h, 1 × 10^−8M, 4 days (96 hours), read-out: Growth inhibition rate (%)): 31 ± 7.8%
- inhibition at 0.5 µM (U-937 cells [1]; Homo sapiens, U-937, 96 h, 5 × 10^−7M, 4 days (96 hours), read-out: Growth inhibition rate (%)): 48 ± 7.1%
- inhibition at 0.05 µM (U-937 cells [1]; Homo sapiens, U-937, 96 h, 5 × 10^−8M, 4 days (96 hours), read-out: Growth inhibition rate (%)): 35.5 ± 7.4%
- growth inhibition rate (inhibitory effect) (U-937 cells [1]; after 96 hours, concentration of 10^−8˜10^−6M): 30-50%
- NBT reduction test: positive cells (U-937 cells [2]): 43%
- NBT reduction test: positive cells (U-937 cells [2]; listed as Decursin): 43.1 ± 4.0%
- Naphtol AS-D chloroacetate esterase Activity (%) (U-937 cells [3]): 0.0%
- Growth inhibition rate (%) (normal cells (LLC-PK1); 1 × 10^−6M): 0.0 ± 0.0%
- Growth inhibition rate (%) (normal cells (LLC-PK1); 1 × 10^−7M): 0.0 ± 0.0%
- Growth inhibition rate (%) (normal cells (LLC-PK1); 1 × 10^−8M): 0.0 ± 0.0%
- Growth inhibition rate (%) (normal cells (LLC-PK1); 5 × 10^−7M): 0.0 ± 0.0%
- Growth inhibition rate (%) (normal cells (LLC-PK1); 5 × 10^−8M): 0.0 ± 0.0%
- concentration at which decursin has toxicity on cancer cell lines [4]: more than 10 ppm
